{"source": "patent US9605163B2", "about": "“Aminoalcohol compounds and their use as zero or low VOC additives for paints and coatings” (ANGUS CHEMICAL COMPANY, priority 2011, dated 2017)", "key": {"[1]": {"assay": "pKa determination by titration with H2SO4 in water", "assay_type": "physicochemical", "conditions": "0.5 N H2SO4, water as solvent", "description": "pKa. pKa values are determined by titration using 0.5 NH2SO4 as titrant with water as solvent. Duplicate analyses are performed."}, "[2]": {"assay": "VOC according to ASTM D6886-rev gas chromatography method", "assay_type": "physicochemical", "conditions": "for Percent VOC measured on the crude amine sample: ASTM D6886-rev, value attributed to impurities / residual amine; for VOC classification according to ASTM D6886-rev protocol: pure compound", "description": "“Zero or low VOC compound” and like terms mean that a particular aminoalcohol compound of the invention passes the criteria set forth by one or more gas chromatography methods, such as ASTM D6886-rev method, ISO 11890 or GB 18581. ASTM D6886-rev method is preferred.\nVOC. VOC properties are tested according to the ASTM D6886-rev method."}, "[3]": {"assay": "Freeze-thaw cycles of paint samples, Krebs Stormer viscosity", "conditions": "for Initial Viscosity (KU): paint of Table 5, additive post-added at 2 wt %, before freeze-thaw", "description": "The paint formulations are prepared using F/T agent 1 as shown by structures below. The octanol water partition coefficient is calculated using the method of Moriguchi et al., Chem. Pharm. Bull. 40(1), 127-130 (1992). The calculated octanol-water partition coefficient for F/T-1 is 0.69. […] Paint samples are frozen at −18° C. for 17 hours and then thawed at 25° C. for 7 hours. This constitutes 1 complete freeze-thaw cycle. Viscosities are measured after each freeze-thaw cycle using a Krebs Stormer Viscometer from Sheen at room temperature. The viscosity is measured in Krebs unit (KU). The results of freeze-thaw cycles on paint samples that contain a zero-VOC compound of the invention as a post-add are listed in the Table 6. The post-add compound is mixed at 2 wt % in the paint samples. The same paint formulation is used in preparing all the samples. The paint sample without any post-add is designated as “Blank.”\nThe KU values below 150 as reported in Table 9 are considered acceptable, and all the values (other than that for the Blank) reported are considered very acceptable."}, "[4]": {"conditions": "additive 2 wt %, cycle = −18° C. 17 hours, 25° C. 7 hours"}}}
{"smiles": "CC(C)(C)CC(C)(C)N(CC(O)CO)CC(O)CO", "note": "(stereo not shown) [3,3′-((2,4,4-trimethylpentan-2-yl)azanediyl)bis(propane-1,2-diol)]", "values": [{"measurement": "pKa", "setting": "[1]", "value": 9}, {"measurement": "Percent VOC measured on the crude amine sample", "setting": "[2]", "value": 3.6, "unit": "%"}, {"measurement": "VOC classification according to ASTM D6886-rev protocol", "setting": "[2]", "value": "zero VOC"}]}
{"smiles": "CCC(O)CNC(CC)(CO)CO", "note": "(stereo not shown) [AEPD-1BO, 2-ethyl-2-((2-hydroxybutyl)amino)propane-1,3-diol]", "values": [{"measurement": "pKa", "setting": "[1]", "value": 8.7}]}
{"smiles": "CCC(O)CN(CC(O)CC)C(C)(C)CO", "note": "(stereo not shown) [AMP-2BO, 1,1′-((1-hydroxy-2-methylpropan-2-yl)azanediyl)bis(butan-2-ol)]", "values": [{"measurement": "pKa", "setting": "[1]", "value": 9.1}]}
{"smiles": "OCCN(CCO)C1CCCCC1O", "note": "(stereo not shown) [DEA-CyHO, 2,2′-((2-hydroxycyclohexyl)azanediyl)diethanol]", "values": [{"measurement": "pKa", "setting": "[1]", "value": 8.6}]}
{"smiles": "OCCOCCO", "note": "[Diethylene Glycol, diethylene glycol, reference compound]", "values": [{"measurement": "Viscosity after Freeze-Thaw cycles (KU), 5th cycle", "setting": "[3]; [4]", "value": 98, "unit": "KU"}, {"measurement": "Initial Viscosity (KU)", "setting": "[3]", "value": 91.0, "unit": "KU"}]}
{"smiles": "CC(C)(C)CC(C)(C)N(CC(O)CO)CC(O)CO", "note": "(stereo not shown) [F/T Agent 1]", "values": [{"measurement": "Viscosity after Freeze-Thaw cycles (KU), 1st cycle", "setting": "[3]; [4]", "value": 92.6, "unit": "KU"}, {"measurement": "Viscosity after Freeze-Thaw cycles (KU), 2nd cycle", "setting": "[3]; [4]", "value": 100.8, "unit": "KU"}, {"measurement": "Viscosity after Freeze-Thaw cycles (KU), 3rd cycle", "setting": "[3]; [4]", "value": 103.1, "unit": "KU"}, {"measurement": "Viscosity after Freeze-Thaw cycles (KU), 4th cycle", "setting": "[3]; [4]", "value": 104.2, "unit": "KU"}, {"measurement": "Viscosity after Freeze-Thaw cycles (KU), 5th cycle", "setting": "[3]; [4]", "value": 105.3, "unit": "KU"}, {"measurement": "Freeze-thaw survival of paint samples", "setting": "[3]; additive as post-add", "value": "survive five freeze-thaw cycles"}, {"measurement": "Initial Viscosity (KU)", "setting": "[3]", "value": 85.2, "unit": "KU"}]}
{"smiles": "CC(O)CNC(CO)(CO)CO", "note": "(stereo not shown) [TA-1PO, 2-(hydroxymethyl)-2-((2-hydroxypropyl)amino)propane-1,3-diol]", "values": [{"measurement": "pKa", "setting": "[1]", "value": 8}]}
{"smiles": "CC(C)OCC(O)CNC(CO)(CO)CO", "note": "(stereo not shown) [TA-IPM, 2-((2-hydroxy-3-isopropoxypropyl)amino)-2-(hydroxymethyl)propane-1,3-diol]", "values": [{"measurement": "pKa", "setting": "[1]", "value": 7.8}, {"measurement": "Percent VOC measured on the crude amine sample", "setting": "[2]", "value": 8.7, "unit": "%"}, {"measurement": "VOC classification according to ASTM D6886-rev protocol", "setting": "[2]", "value": "zero VOC"}]}
